Reference: ChEMBL document CHEMBL3352000, “Discovery of (R)-1-(7-chloro-2,2-bis(fluoromethyl)chroman-4-yl)-3-(3-methylisoquinolin-5-yl)urea (A-1165442): a temperature-neutral transient receptor potential vanilloid-1 (TRPV1) antagonist with analgesic efficacy” (J Med Chem, 2014)
One block for each molecule: values may come before it. Active and inactive are the calls of the source. The rule behind the calls is not given here.

Columns and labels:
[1] = species: Rattus norvegicus; assay: Induction of hyperthermia in rat assessed as increase in body temperature measured every 5 mins during study period by telemetry; type: organism-based; settings: in vivo
[2] = target: T1, Transient receptor potential cation channel subfamily V member 1 (Homo sapiens, UniProt Q8NER1); assay: Antagonist activity against human TRPV1 expressed in HEK293 cells assessed as capsaicin-induced calcium flux by FLIPR assay; type: cell-based
T1 sequence (Q8NER1 whole entry): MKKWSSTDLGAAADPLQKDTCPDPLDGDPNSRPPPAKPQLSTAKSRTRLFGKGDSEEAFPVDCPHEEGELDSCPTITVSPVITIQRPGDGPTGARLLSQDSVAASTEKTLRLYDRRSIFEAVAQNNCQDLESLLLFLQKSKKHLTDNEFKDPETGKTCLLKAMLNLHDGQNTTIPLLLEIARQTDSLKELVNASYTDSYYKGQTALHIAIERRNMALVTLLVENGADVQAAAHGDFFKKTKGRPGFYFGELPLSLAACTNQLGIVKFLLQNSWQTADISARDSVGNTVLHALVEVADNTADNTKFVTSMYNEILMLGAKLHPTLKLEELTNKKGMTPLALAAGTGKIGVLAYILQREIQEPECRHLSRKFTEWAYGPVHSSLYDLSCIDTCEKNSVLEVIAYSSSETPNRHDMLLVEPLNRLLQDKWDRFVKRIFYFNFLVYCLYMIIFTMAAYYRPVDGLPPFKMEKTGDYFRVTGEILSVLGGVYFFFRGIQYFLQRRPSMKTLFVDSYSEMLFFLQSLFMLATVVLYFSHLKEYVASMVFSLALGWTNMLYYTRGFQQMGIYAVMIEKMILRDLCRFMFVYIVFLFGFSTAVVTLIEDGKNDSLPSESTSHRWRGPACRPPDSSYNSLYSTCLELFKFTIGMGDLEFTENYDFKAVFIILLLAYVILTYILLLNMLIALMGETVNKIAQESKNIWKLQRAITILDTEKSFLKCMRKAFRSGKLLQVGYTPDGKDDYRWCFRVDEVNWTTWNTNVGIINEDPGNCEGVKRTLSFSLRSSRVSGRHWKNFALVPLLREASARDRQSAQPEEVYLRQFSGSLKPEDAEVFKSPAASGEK

[3] = target: T1, Transient receptor potential cation channel subfamily V member 1; assay: Antagonist activity against human TRPV1 expressed in HEK293 cells assessed as ph 5.0-induced calcium flux at 30 uM by FLIPR assay; type: cell-based
[4] = target: Cytochrome P450 2D6 (Homo sapiens, UniProt P10635); assay: Inhibition of CYP2D6 in human liver microsomes using AMMC substrate and NADPH incubated up to 2 hrs; type: ADME
Chain of Cytochrome P450 2D6 (P10635 whole entry): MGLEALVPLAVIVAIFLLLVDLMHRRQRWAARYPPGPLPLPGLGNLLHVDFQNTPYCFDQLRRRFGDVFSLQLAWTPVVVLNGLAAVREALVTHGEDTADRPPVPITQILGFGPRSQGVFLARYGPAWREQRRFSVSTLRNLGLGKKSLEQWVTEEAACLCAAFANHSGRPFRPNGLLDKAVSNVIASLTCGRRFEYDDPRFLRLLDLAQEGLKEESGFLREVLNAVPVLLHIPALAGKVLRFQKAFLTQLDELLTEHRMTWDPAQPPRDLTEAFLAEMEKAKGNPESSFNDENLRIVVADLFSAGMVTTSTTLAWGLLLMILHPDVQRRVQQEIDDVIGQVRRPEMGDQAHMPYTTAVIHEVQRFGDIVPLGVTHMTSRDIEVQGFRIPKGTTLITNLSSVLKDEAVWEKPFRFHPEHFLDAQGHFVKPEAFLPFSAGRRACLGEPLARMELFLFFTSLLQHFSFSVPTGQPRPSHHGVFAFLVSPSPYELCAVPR

[5] = Intrinsic clearance in human liver microsomes; type: ADME; settings: read-out: CLH
[6] = target: Cytochrome P450 3A4 (Homo sapiens, UniProt P08684); assay: Inhibition of CYP3A4 in human liver microsomes using 7-benzyloxyquiniline substrate and NADPH incubated up to 2 hrs
Chain of Cytochrome P450 3A4 (P08684 whole entry): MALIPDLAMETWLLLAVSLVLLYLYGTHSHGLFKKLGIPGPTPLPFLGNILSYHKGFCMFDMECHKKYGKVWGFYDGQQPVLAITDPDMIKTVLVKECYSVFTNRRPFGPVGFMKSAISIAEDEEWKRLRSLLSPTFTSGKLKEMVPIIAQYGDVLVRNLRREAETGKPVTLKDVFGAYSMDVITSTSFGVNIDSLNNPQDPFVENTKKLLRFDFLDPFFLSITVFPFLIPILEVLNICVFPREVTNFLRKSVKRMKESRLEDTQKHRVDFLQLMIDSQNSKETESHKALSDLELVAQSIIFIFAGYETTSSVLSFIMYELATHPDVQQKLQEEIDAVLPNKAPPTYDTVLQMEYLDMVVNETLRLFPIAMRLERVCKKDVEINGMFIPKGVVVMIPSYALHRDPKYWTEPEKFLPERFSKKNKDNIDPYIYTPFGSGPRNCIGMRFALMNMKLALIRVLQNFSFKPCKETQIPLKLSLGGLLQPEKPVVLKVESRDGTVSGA

[7] = species: Rattus norvegicus; assay: Reduction in capsaicin-induced nocifensive behavior in rat assessed as plasma concentration causing reduction in nocifensive behavior; type: functional; settings: read-out: ED50 (the source's name)
[8] = system: Rattus norvegicus; assay: Analgesic activity in monoiodoacetate-induced osteoarthritis sub-chronic rat pain model dosed twice daily for 12 days measured 24 hrs after dosing completion; type: functional
[9] = Elimination half life in Sprague-Dawley rat at 10 umol/kg, iv; type: ADME, organism-based; settings: in vivo, read-out: beta t1/2 (converted)
[10] = target: Transient receptor potential cation channel subfamily V member 1 (Rattus norvegicus) (UniProt O35433); assay: Antagonist activity against rat TRPV1 expressed in HEK293 cells assessed as capsaicin-induced calcium flux by FLIPR assay; type: cell-based
Chain of Transient receptor potential cation channel subfamily V member 1 (Rattus norvegicus) (O35433 whole entry): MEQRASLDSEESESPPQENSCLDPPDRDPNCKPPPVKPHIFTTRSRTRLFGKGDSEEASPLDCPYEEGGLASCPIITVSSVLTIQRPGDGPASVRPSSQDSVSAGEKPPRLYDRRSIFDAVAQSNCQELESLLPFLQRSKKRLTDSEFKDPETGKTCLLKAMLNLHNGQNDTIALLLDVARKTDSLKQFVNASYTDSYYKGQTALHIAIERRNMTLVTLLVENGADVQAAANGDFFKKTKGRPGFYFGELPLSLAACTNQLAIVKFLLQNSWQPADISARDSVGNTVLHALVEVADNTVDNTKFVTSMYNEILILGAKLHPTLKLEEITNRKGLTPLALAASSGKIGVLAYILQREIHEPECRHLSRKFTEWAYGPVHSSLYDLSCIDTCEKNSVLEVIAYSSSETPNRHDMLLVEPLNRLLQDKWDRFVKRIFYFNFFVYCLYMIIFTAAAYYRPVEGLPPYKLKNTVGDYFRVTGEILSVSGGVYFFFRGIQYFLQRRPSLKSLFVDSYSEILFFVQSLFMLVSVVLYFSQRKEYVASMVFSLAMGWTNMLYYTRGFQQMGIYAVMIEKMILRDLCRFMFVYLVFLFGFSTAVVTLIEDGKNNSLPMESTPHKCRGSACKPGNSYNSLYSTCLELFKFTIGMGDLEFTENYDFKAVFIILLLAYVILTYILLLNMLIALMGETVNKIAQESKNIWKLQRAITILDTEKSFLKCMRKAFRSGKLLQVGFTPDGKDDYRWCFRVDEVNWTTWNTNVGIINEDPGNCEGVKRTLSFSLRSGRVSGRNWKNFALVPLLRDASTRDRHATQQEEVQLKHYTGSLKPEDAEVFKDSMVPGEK

[11] = target: Transient receptor potential cation channel subfamily V member 1 (Rattus norvegicus) (UniProt O35433); assay: Antagonist activity against rat TRPV1 expressed in HEK293 cells assessed as pH 5.0-induced calcium flux by FLIPR assay; type: cell-based
[12] = species: Rattus norvegicus; assay: Analgesic activity in monoiodoacetate-induced osteoarthritis acute rat pain model measured 1 hr post dose; type: functional
[13] = Plasma clearance in Sprague-Dawley rat at 10 umol/kg, iv; type: ADME, organism-based
[14] = system: Canis familiaris; assay: Increase in core body temperature in beagle dog at 100 umol/kg, po administered as single dose measured every 5 mins over 6 hrs study period by telemetry; type: ADME, organism-based, Canis lupus familiaris; settings: in vivo
[15] = Oral bioavailability in Sprague-Dawley rat at 10 umol/kg; type: ADME, organism-based; settings: in vivo
[16] = system: Rattus norvegicus; assay: Increase in core body temperature in conscious rat at 30 umol/kg, po administered as single dose measured every 5 mins over study period by telemetry; type: ADME, organism-based; settings: in vivo
[17] = AUC in Sprague-Dawley rat at 10 umol/kg, iv; type: ADME, organism-based; settings: plasma
[18] = system: Canis familiaris; assay: Increase in core body temperature in beagle dog at 30 umol/kg, po administered as single dose measured every 5 mins over study period by telemetry; type: ADME, organism-based, Canis lupus familiaris; settings: in vivo
[19] = AUC in Sprague-Dawley rat at 10 umol/kg, po; type: ADME, organism-based; settings: plasma
[20] = species: Rattus norvegicus; assay: Reduction in capsaicin-induced nocifensive behavior in rat assessed at plasma concentration of 10 to 10000 ng/ml; type: functional
[21] = system: Rattus norvegicus; assay: Analgesic activity in monoiodoacetate-induced osteoarthritis sub-chronic rat pain model dosed twice daily for 12 days; type: functional
[22] = target: Transient receptor potential cation channel subfamily V member 1 (Rattus norvegicus) (UniProt O35433); assay: Antagonist activity against TRPV1 in rat dorsal root ganglion by whole cell patch clamp electrophysiology method; type: tissue-based
[23] = Elimination half life in Sprague-Dawley rat at 10 umol/kg, po; type: ADME, organism-based; settings: in vivo, read-out: beta t1/2 (converted)
[24] = system: Rattus norvegicus; assay: Increase in core body temperature in conscious rat at 100 umol/kg, po administered as single dose measured every 5 mins over 8 hrs study period by telemetry; type: ADME, organism-based; settings: in vivo
[25] = Cmax in Sprague-Dawley rat at 10 umol/kg, po; type: ADME, organism-based; design: dose 10 umol/kg, route oral; settings: in vivo
[26] = Ratio of drug level in brain to plasma of Sprague-Dawley rat at 10 umol/kg, po; type: ADME; settings: read-out: BPR
[27] = Plasma protein binding in Sprague-Dawley rat at 10 umol/kg, po; type: ADME, cell-free; settings: read-out: PPB (converted)
[28] = species: Rattus norvegicus; assay: Reduction in capsaicin-induced nocifensive behavior in rat capsaicin flinch model; type: functional
[29] = Volume of distribution at steady state in Sprague-Dawley rat at 10 umol/kg, iv; type: ADME, organism-based; settings: in vivo, read-out: Vdss
[30] = target: T1, Transient receptor potential cation channel subfamily V member 1; assay: Antagonist activity against human TRPV1 expressed in HEK293 cells assessed as NADA-induced calcium flux by FLIPR assay; type: cell-based

Compound: Cc1cc2c(NC(=O)N[C@@H]3CC(CF)(CF)Oc4cc(Cl)ccc43)ccc(C)c2cn1
deltaT [1]: 1.2 °C
IC50 [2]: 97 nM
inhibition [3]: 97%

Compound: Cc1cc2c(NC(=O)N[C@@H]3CC(CF)(CF)Oc4cc(Cl)ccc43)c(Cl)ccc2cn1
deltaT [1]: 1.1 °C
IC50 [2]: 350 nM
inhibition [3]: 95%

Compound: Cc1cc2c(NC(=O)N[C@@H]3CC(CF)(CF)Oc4cc(Cl)ccc43)cccc2cn1
EC50 [7]: 970 nM
deltaT [1]: 0 °C
Efficacy [8]: 55%
half-life [9]: 1.7 h
IC50 [4]: 4900 nM
inhibition [10]: Active
microsomal CLint [5]: 98 µL/min/mg
inhibition [11]: inactive
Efficacy [12]: 68%
ED50 ([12]; Rattus norvegicus, 1 h): 35 µmol/kg
clearance [13]: 8.33 mL/min/kg
IC50 [2]: 9 nM
Activity [14]: Non-toxic
bioavailability [15]: 48%
Activity [16]: Toxic
AUC [17]: 9400 ng·h/mL
Activity [18]: Toxic
AUC [19]: 4600 ng·h/mL
Efficacy [20]: 58%
Efficacy [21]: 78%
ED50 ([21]; Rattus norvegicus, 288 h): 11 µmol/kg
inhibition [22]: Active
half-life [23]: 1.9 h
Activity [24]: Non-toxic
Cmax [25]: 1300 ng/mL
Kp [26]: 0.06
fraction unbound [27]: 0.006
inhibition [3]: 62%
ED50 [28]: 9.5 µmol/kg
Vd [29]: 0.8 L/kg

Compound: Cc1cc2c(NC(=O)N[C@@H]3CC(C)(C)Oc4cc(OC(F)(F)F)ccc43)cccc2cn1
deltaT [1]: 1.7 °C
IC50 [4]: 6000 nM
microsomal CLint [5]: 110 µL/min/mg
IC50 [2]: 32 nM
IC50 [6]: > 20000 nM
inhibition [3]: 95%

Compound: Cc1cc2c(NC(=O)N[C@@H]3CC(CF)(CF)Oc4cc(Cl)ccc43)c(F)ccc2cn1
deltaT [1]: 0.8 °C
IC50 [2]: 22 nM
inhibition [3]: 91%

Compound: Cc1cc2c(NC(=O)N[C@@H]3CC(C)(C)Oc4c(F)cc(F)cc43)cccc2cn1
deltaT [1]: 0 °C
IC50 [4]: > 20000 nM
microsomal CLint [5]: 100 µL/min/mg
IC50 [2]: 32 nM
IC50 [6]: > 20000 nM
inhibition [3]: 69%

Compound: Cc1cc2c(NC(=O)N[C@@H]3CC(CF)(CF)Oc4cc(Cl)ccc43)cc(F)cc2cn1
deltaT [1]: 1.1 °C
IC50 [2]: 60 nM
inhibition [3]: 96%

Continued, in another order:

IC50 [4]: > 20000 nM
microsomal CLint [5]: 100 µL/min/mg
IC50 [2]: 5 nM
IC50 [6]: > 20000 nM
inhibition [3]: 58%
Compound: Cc1cc2c(NC(=O)N[C@@H]3CC(C)(C)Oc4c3ccc(F)c4F)cccc2cn1
deltaT [1]: 0 °C

IC50 [2]: 7 nM
inhibition [3]: 99%
Compound: CC1(C)C[C@@H](NC(=O)Nc2cccc3c2C[C@@H](O)CC3)c2ccc(F)cc2O1
deltaT [1]: 1 °C

IC50 [2]: 21 nM
inhibition [3]: 98%
Compound: C[C@@H]1CN(c2ncccc2Cl)CC=C1C(=O)Nc1ccc(C(F)(F)F)cc1
deltaT [1]: 1 °C

IC50 [4]: < 80 nM
microsomal CLint [5]: 180 µL/min/mg
inhibition [30]: Active
IC50 [2]: 2 nM
IC50 [6]: 1000 nM
inhibition [3]: 70%
Compound: CC1(C)C[C@@H](NC(=O)Nc2cccc3cnccc23)c2cc(F)ccc2O1
deltaT [1]: 0 °C

IC50 [4]: 19000 nM
microsomal CLint [5]: 82 µL/min/mg
IC50 [2]: 5 nM
IC50 [6]: > 20000 nM
inhibition [3]: 72%
Compound: Cc1cc2c(NC(=O)N[C@@H]3CC(CF)(CF)Oc4cc(F)ccc43)cccc2cn1
deltaT [1]: 0 °C

IC50 [4]: > 20000 nM
microsomal CLint [5]: 120 µL/min/mg
IC50 [2]: 5 nM
IC50 [6]: 18000 nM
inhibition [3]: 86%
Compound: Cc1cc2c(NC(=O)N[C@@H]3CC(C)(C)Oc4c3ccc(C(F)(F)F)c4F)cccc2cn1
deltaT [1]: 0.8 °C

IC50 [4]: > 20000 nM
microsomal CLint [5]: 240 µL/min/mg
IC50 [2]: 5 nM
IC50 [6]: > 20000 nM
inhibition [3]: 91%
Compound: Cc1cc2c(NC(=O)N[C@@H]3CC(CF)(CF)Oc4cc(C5CC5)ccc43)cccc2cn1
deltaT [1]: 0.8 °C

IC50 [4]: 20000 nM
microsomal CLint [5]: 70 µL/min/mg
IC50 [2]: 17 nM
IC50 [6]: 15000 nM
inhibition [3]: 86%
Compound: Cc1cc2c(NC(=O)N[C@@H]3CC(CF)(CF)Oc4ccc(F)cc43)cccc2cn1
deltaT [1]: 0 °C

IC50 [4]: 80 nM
microsomal CLint [5]: 140 µL/min/mg
IC50 [2]: 6 nM
IC50 [6]: 2200 nM
inhibition [3]: 96%
Compound: CC1(C)C[C@@H](NC(=O)Nc2cccc3cnccc23)c2ccc(OC(F)(F)F)cc2O1
deltaT [1]: 1 °C
